Results as given in PubChem BioAssay AID328 (DTP/NCI, 2004).
Where “and” joins values, the source holds several entries; their conditions need not be identical. Identical values can stand only once. Toxic doses and inconclusive results are not listed. The calls were made as follows: active = survival T/C of 150% or more; inactive = T/C below 125% in these data.

Tested on: BDF1 mice, P388 leukemia ip, median survival T/C
Experiment: NCI In Vivo Anticancer Drug Screen. Data for tumor model P388 Leukemia (intraperitoneal) in B6D2F1 (BDF1) mice
Conditions: endpoint: median survival time, higher = longer survival
How it was run: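 Steps: implant the tumour, treat one group with compound and another with vehicle, record survival, then divide treated by control.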

[1] = dose: 50.0 mg/kg/injection, schedule: Q01DX009 (ip), vehicle: saline
[2] = dose: 50.0 mg/kg/injection, schedule: Q01DX009 (ip), vehicle: saline with Tween-80
[3] = dose: 200.0 mg/kg/injection, schedule: Q01DX009 (ip), vehicle: saline with Tween-80
[4] = dose: 100.0 mg/kg/injection, schedule: Q01DX009 (ip), vehicle: saline
[5] = dose: 200.0 mg/kg/injection, schedule: Q01DX009 (ip), vehicle: saline
[6] = dose: 100.0 mg/kg/injection, schedule: Q04DX003 (ip), vehicle: saline
[7] = dose: 200.0 mg/kg/injection, schedule: Q04DX003 (ip), vehicle: saline
[8] = dose: 400.0 mg/kg/injection, schedule: Q01DX009 (ip), vehicle: saline
[9] = dose: 400.0 mg/kg/injection, schedule: Q04DX003 (ip), vehicle: saline
[10] = dose: 100.0 mg/kg/injection, schedule: Q01DX009 (ip), vehicle: Klucel (hydroxypropylcellulose) (HPC)
[11] = dose: 100.0 mg/kg/injection, schedule: Q04DX003 (ip), vehicle: Klucel (hydroxypropylcellulose) (HPC)
[12] = dose: 200.0 mg/kg/injection, schedule: Q01DX009 (ip), vehicle: Klucel (hydroxypropylcellulose) (HPC)
[13] = dose: 200.0 mg/kg/injection, schedule: Q04DX003 (ip), vehicle: Klucel (hydroxypropylcellulose) (HPC)
[14] = dose: 400.0 mg/kg/injection, schedule: Q01DX009 (ip), vehicle: Klucel (hydroxypropylcellulose) (HPC)
[15] = dose: 400.0 mg/kg/injection, schedule: Q04DX003 (ip), vehicle: Klucel (hydroxypropylcellulose) (HPC)
[16] = dose: 25.0 mg/kg/injection, schedule: Q01DX009 (ip), vehicle: saline
[17] = dose: 100.0 mg/kg/injection, schedule: Q01DX009 (ip), vehicle: saline with Tween-80

Measured: T/C

CSN1C(=O)CCC1=O
inactive: dose: 50.0 mg/kg/injection, schedule: Q04DX002 (ip), vehicle: saline 107 % of control | dose: 100.0 mg/kg/injection, schedule: Q04DX002 (ip), vehicle: saline 100 % of control | dose: 200.0 mg/kg/injection, schedule: Q04DX002 (ip), vehicle: saline 109 % of control

CC1C[N-]CC(C)C1.CC1C[N-]CC(C)C1.[Cl][Pt+2]([Cl])([Cl])[Cl] (stereo unspecified)
inactive: dose: 1.56 mg/kg/injection, schedule: Q01DX009 (ip), vehicle: saline 95 % of control | dose: 3.12 mg/kg/injection, schedule: Q01DX009 (ip), vehicle: saline 114 % of control | dose: 6.25 mg/kg/injection, schedule: Q01DX009 (ip), vehicle: saline 93 % of control | dose: 12.5 mg/kg/injection, schedule: Q01DX009 (ip), vehicle: saline 114 % of control | [1] 107 % of control

CCOC(=O)/C(=N\O)C1=CSC2=NNC(C)(C)N12
inactive: [2] 95 % of control | [3] 92 % of control

O=C(O)C1=CC(O)C(O)C(O)C1 (stereo unspecified)
inactive: [1] 87 % of control | [4] 100 % of control | dose: 100.0 mg/kg/injection, schedule: Q04DX003 (ip), vehicle: saline sonified 100 % of control | [5] 91 % of control | dose: 200.0 mg/kg/injection, schedule: Q04DX003 (ip), vehicle: saline sonified 100 % of control | dose: 400.0 mg/kg/injection, schedule: Q04DX003 (ip), vehicle: saline sonified 100 % of control

O=C(CN1CCOCC1)N1CCOCC1
inactive: [4] 90 % of control | [6] 100 % of control | [5] 100 % of control | [7] 95 % of control | [8] 100 % of control | [9] 104 % of control

Cc1ccc(NC(=O)c2ccc(Cl)cc2)cc1
inactive: [10] 100 % of control | [11] 108 % of control | [12] 109 % of control | [13] 104 % of control | [14] 90 % of control | [15] 104 % of control

CC(=O)Nc1ccc(Cl)cc1C(=O)c1ccc[nH]1
inactive: [16] 100 % of control | [1] 95 % of control | dose: 50.0 mg/kg/injection, schedule: Q04DX003 (ip), vehicle: saline 102 % of control | [6] 98 % of control | [5] 110 % of control | [7] 100 % of control | [8] 87 % of control | [9] 100 % of control

C1=CC23C4CCC2C2C4C4C(=C1)C3C2N1CCCCC41 (stereo unspecified)
inactive: dose: 12.5 mg/kg/injection, schedule: Q01DX009 (ip), vehicle: Klucel (hydroxypropylcellulose) (HPC) 104 % of control | dose: 25.0 mg/kg/injection, schedule: Q01DX009 (ip), vehicle: Klucel (hydroxypropylcellulose) (HPC) 100 % of control | dose: 37.5 mg/kg/injection, schedule: Q04DX003 (ip), vehicle: Klucel (hydroxypropylcellulose) (HPC) 91 % of control | dose: 50.0 mg/kg/injection, schedule: Q01DX009 (ip), vehicle: Klucel (hydroxypropylcellulose) (HPC) 100 % of control | dose: 75.0 mg/kg/injection, schedule: Q04DX003 (ip), vehicle: Klucel (hydroxypropylcellulose) (HPC) 100 % of control

N#[N+]N=c1c(=NN=[N-])c(=O)c2ccccc2c1=O
inactive: dose: 3.0 mg/kg/injection, schedule: Q01DX009 (ip), vehicle: saline with Tween-80 90 % of control | dose: 6.0 mg/kg/injection, schedule: Q01DX009 (ip), vehicle: saline with Tween-80 87 % of control | dose: 12.0 mg/kg/injection, schedule: Q01DX009 (ip), vehicle: saline with Tween-80 95 % of control

CC(=O)OC1CCCc2c1nc1ccccc1[n+]2[O-] (stereo unspecified)
inactive: [2] 88 % of control | [17] 100 % of control | [3] 96 % of control

OCc1ccc(Cl)c(Cl)c1
inactive: dose: 100.0 mg/kg/injection, schedule: Q04DX003 (ip), vehicle: other 104 % of control | dose: 200.0 mg/kg/injection, schedule: Q04DX003 (ip), vehicle: other 104 % of control | dose: 400.0 mg/kg/injection, schedule: Q04DX003 (ip), vehicle: other 100 % of control

O=[As]c1ccc(Br)cc1 (stereo unspecified)
inactive: dose: 0.5 mg/kg/injection, schedule: Q01DX009 (ip), vehicle: Klucel (hydroxypropylcellulose) (HPC) 104 % of control | dose: 1.0 mg/kg/injection, schedule: Q01DX009 (ip), vehicle: Klucel (hydroxypropylcellulose) (HPC) 104 % of control | dose: 2.0 mg/kg/injection, schedule: Q01DX009 (ip), vehicle: Klucel (hydroxypropylcellulose) (HPC) 104 % of control

CC(C)[C@]12O[C@H]1[C@@H]1O[C@]13[C@]1(O[C@H]1C[C@H]1C4=C(CC[C@@]13C)C(=O)OC4)[C@@H]2O
inactive: dose: 26.0 micrograms/kg/injection, schedule: Q01DX009 (ip), vehicle: saline 118 % of control | dose: 40.0 micrograms/kg/injection, schedule: Q01DX009 (ip), vehicle: saline 118 % of control | dose: 60.0 micrograms/kg/injection, schedule: Q01DX009 (ip), vehicle: saline 100 % of control | dose: 89.0 micrograms/kg/injection, schedule: Q01DX009 (ip), vehicle: saline 109 % of control | dose: 133.0 micrograms/kg/injection, schedule: Q01DX009 (ip), vehicle: saline 100 % of control

COC(OC)c1nc(N)[nH]c(=O)c1Cc1ccc(C)c2ccccc12
inactive: [17] 96 % of control | dose: 100.0 mg/kg/injection, schedule: Q04DX003 (ip), vehicle: saline with Tween-80 109 % of control | [3] 88 % of control | dose: 200.0 mg/kg/injection, schedule: Q04DX003 (ip), vehicle: saline with Tween-80 100 % of control | dose: 400.0 mg/kg/injection, schedule: Q04DX003 (ip), vehicle: saline with Tween-80 100 % of control

COC1C(=O)CCC2(CO2)C1(O)C1(C)OC1CCC(C)C (stereo unspecified)
inactive: dose: 22.0 mg/kg/injection, schedule: Q01DX009 (ip), vehicle: saline with Tween-80 109 % of control | dose: 44.0 mg/kg/injection, schedule: Q01DX009 (ip), vehicle: saline with Tween-80 109 % of control | dose: 87.5 mg/kg/injection, schedule: Q01DX009 (ip), vehicle: saline with Tween-80 110 % of control and 118 % of control

COC(=O)c1cc(C)c(Br)c(N)c1
inactive: [10] 105 % of control | [11] 109 % of control | [12] 100 % of control | [13] 104 % of control | [14] 100 % of control | [15] 109 % of control

CSC/C(=N\Nc1ccc([N+](=O)[O-])cc1[N+](=O)[O-])c1ccccc1
inactive: dose: 1.56 mg/kg/injection, schedule: Q01DX001 (ip), vehicle: saline with Tween-80 100 % of control | dose: 3.13 mg/kg/injection, schedule: Q01DX001 (ip), vehicle: saline with Tween-80 104 % of control | dose: 6.25 mg/kg/injection, schedule: Q01DX001 (ip), vehicle: saline with Tween-80 114 % of control

CN1N=Nc2cccc3cccc1c23
inactive: [16] 105 % of control | [1] 100 % of control | [4] 105 % of control

O=C(Nc1cccc2ccccc12)ON1C(=O)c2ccccc2C1=O
inactive: dose: 50.0 mg/kg/injection, schedule: Q01DX005 (ip), vehicle: saline with Tween-80 110 % of control | dose: 100.0 mg/kg/injection, schedule: Q01DX005 (ip), vehicle: saline with Tween-80 115 % of control | dose: 200.0 mg/kg/injection, schedule: Q01DX005 (ip), vehicle: saline with Tween-80 120 % of control
